Experiments:
TrCla4 [1] = molecular target: T1, TrCla4 (Trichophyton rubrum, UniProt F2SMN8); test: Kinase-Glo ATP consumption assay of immunoprecipitated 3xHA-TrCla4 with recombinant TrRac; format: biochemical
T1 construct: gene TERG_04196; 3xHA-TrCla4 immunoprecipitated from T. rubrum; with TrRac
T1 sequence (F2SMN8 1-888): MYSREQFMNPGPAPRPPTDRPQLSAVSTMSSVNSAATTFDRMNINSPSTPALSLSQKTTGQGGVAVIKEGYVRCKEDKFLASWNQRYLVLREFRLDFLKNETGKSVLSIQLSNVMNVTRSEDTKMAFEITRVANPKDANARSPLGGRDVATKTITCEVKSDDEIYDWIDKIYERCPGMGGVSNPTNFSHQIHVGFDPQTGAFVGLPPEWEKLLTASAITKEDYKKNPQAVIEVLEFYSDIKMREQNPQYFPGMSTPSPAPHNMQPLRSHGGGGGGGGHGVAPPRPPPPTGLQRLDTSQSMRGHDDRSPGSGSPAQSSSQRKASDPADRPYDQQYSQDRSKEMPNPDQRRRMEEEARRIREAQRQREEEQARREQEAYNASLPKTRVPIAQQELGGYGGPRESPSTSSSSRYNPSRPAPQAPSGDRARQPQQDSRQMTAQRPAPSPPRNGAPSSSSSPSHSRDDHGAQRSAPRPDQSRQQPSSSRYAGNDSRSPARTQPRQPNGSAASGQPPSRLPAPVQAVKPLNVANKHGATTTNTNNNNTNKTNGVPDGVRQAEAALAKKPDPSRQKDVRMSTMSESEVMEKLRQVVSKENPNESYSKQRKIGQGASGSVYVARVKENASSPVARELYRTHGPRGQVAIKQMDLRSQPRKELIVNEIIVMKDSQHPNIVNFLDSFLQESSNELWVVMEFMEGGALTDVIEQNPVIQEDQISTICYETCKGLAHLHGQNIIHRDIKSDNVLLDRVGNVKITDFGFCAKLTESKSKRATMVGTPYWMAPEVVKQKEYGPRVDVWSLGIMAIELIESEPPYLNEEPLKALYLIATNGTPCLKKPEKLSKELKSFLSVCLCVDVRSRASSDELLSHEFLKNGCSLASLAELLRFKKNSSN

TrCla4 [2] = molecular target: T2, TrCla4 (Trichophyton rubrum, UniProt F2SMN8); test: pull-down of purified GTPγS-TrRac by Tf-TrCla4 with IPA-3; also Kinase-Glo assay of immunoprecipitated 3xHA-TrCla4; format: biochemical
T2 construct: gene TERG_04196; His-, Tf- and Flag-tagged TrCla4 (E. coli BL21 lysate, Ni NTA pull-down); also immunoprecipitated 3xHA-TrCla4

Row | Structure (SMILES) | Kinase-Glo ATP consumption assay of immunoprecipitated 3xHA-TrCla4 with recombin (TrCla4 [1]) | IC50 (TrCla4 [2]) [nM]
1 | CCn1c(=O)c(-c2ccc(Cl)cc2Cl)cc2cnc(Nc3ccc(N4CCNCC4)c(F)c3)nc21 [FRAX486] | Both FRAX486 and IPA-3 inhibited the TrRac-dependent ATPase activity of 3xHA-TrCla4 (Fig. 5D). | –
2 | Oc1ccc2ccccc2c1SSc1c(O)ccc2ccccc12 [IPA-3] | – | 2300

— publication PMC10714743, “TrCla4 promotes actin polymerization at the hyphal tip and mycelial growth in Trichophyton rubrum” (Microbiology Spectrum, 2023)
